Assay results taken from the supplement of paper PMC8671470.

Legend:
Experiment in all cases: cell viability (% survival relative to DMSO control); higher = less cytotoxic
Conditions in all cases: 72 h
[1] = test system: myeloid leukemia patient primary cells Pat.7
Outline: (§1)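 Where an area under the curve appears, it was computed with the drc and PharmacoGx R packages from log-logistic fits. Those fits used four parameters. The underlying viability data came from CellTiter-Glo after 72 h, normalised to DMSO and 10 μM proteasome-inhibitor wells, with thawed, Ficoll-purified AML or CML patient mononuclear cells at 10,000 cells/well in RPMI 1640 with 10% FBS on 384-well plates pre-printed with 70 compounds at five tenfold concentrations (1–10,000 nM) in duplicate.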

[2] = test system: myeloid leukemia patient primary cells Pat.14
Outline: as §1

[3] = test system: myeloid leukemia patient primary cells Pat.2
Outline: as §1

[4] = test system: myeloid leukemia patient primary cells Pat.8
Outline: as §1

[5] = test system: myeloid leukemia patient primary cells Pat.15
Outline: as §1

[6] = test system: myeloid leukemia patient primary cells Pat.4
Outline: as §1

[7] = test system: myeloid leukemia patient primary cells Pat.5
Outline: as §1

[8] = test system: myeloid leukemia patient primary cells Pat.6
Outline: as §1

HL-60 = test system: HL-60
Procedure: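 8x8 drug-combination matrices (0-5000 nM; rosiglitazone and lestaurtinib 0-1000 nM) were run in HL-60 cells for 72 h with a CellTiter-Glo read-out. Survival is normalised to DMSO and 10 µM bortezomib and clipped at 100%. Bliss synergy was analysed in SynergyFinder.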

O=c1[nH]c(=O)n([C@H]2C[C@H](O)[C@@H](CO)O2)cc1I [Idoxuridine]
cell viability [%]
Conditions | [1] | [2] | [3] | [4] | [5] | [6] | [7] | [8]
1 nM | 77.4 | 82.1 | > 100 | 96.3 | 92.5 | 99.7 | 45.5 | 97.7
10 nM | 69.3 | 75.7 | 90 | > 100 | 93.5 | 82.4 | 10.2 | 97.7
100 nM | 83.4 | 92.2 | 94.9 | 76.2 | 93.7 | 89.8 | 87.4 | 99.8
1000 nM | 63 | 58.6 | 84.2 | 68.1 | 90.3 | 68.2 | 17.2 | 83.2
10000 nM | > 100 | > 100 | 98.2 | 93.1 | 94.7 | 93.1 | 46.7 | > 100

Clc1cc(Cl)c(OCC#CI)cc1Cl [Haloprogin]
cell viability [%]
Conditions | [1] | [2] | [3] | [4] | [5] | [6] | [7] | [8]
1 nM | 72.1 | 88.5 | 93.8 | 66.4 | 85.7 | 88.7 | 87.2 | > 100
10 nM | > 100 | 96.7 | 96.9 | > 100 | 98.8 | 87.3 | 69.7 | > 100
100 nM | > 100 | 68.3 | 92.1 | 81.4 | 85.4 | 85.3 | 2.24 | 93.3
1000 nM | 3.48 | 7.52 | 65 | 67.1 | 66.8 | 13 | < 0 | 54.7
10000 nM | < 0 | < 0 | < 0 | 1.78 | 6.74 | 28.3 | 0.912 | < 0

Oc1ncc(F)c(O)n1 [5-fluorouracil] + C[C@]12O[C@H](C[C@]1(O)CO)n1c3ccccc3c3c4c(c5c6ccccc6n2c5c31)CNC4=O [Lestaurtinib]
cell viability [%], HL-60
Conditions | drug1 concentration 5 nM | drug1 concentration 10 nM | drug1 concentration 50 nM | drug1 concentration 100 nM | drug1 concentration 500 nM | drug1 concentration 1000 nM | drug1 concentration 5000 nM
drug2 concentration 1 nM | > 100 | > 100 | 53 | > 100 | 89.7 | 66.2 | 62.9
drug2 concentration 5 nM | > 100 | 79.6 | > 100 | 71.6 | 91.6 | 64.7 | 80.9
drug2 concentration 10 nM | 73.2 | 98.7 | > 100 | > 100 | 84.2 | 50.3 | 66.5
drug2 concentration 50 nM | 72 | 85.6 | 56.1 | 67.8 | 53.5 | 77.1 | 43
drug2 concentration 100 nM | 60.5 | 67.5 | 68.8 | 63.6 | 74.3 | 51.8 | 32.6
drug2 concentration 500 nM | 32.8 | 32.6 | 48.9 | 41.5 | 35.7 | 33.5 | 26.1
drug2 concentration 1000 nM | 8.89 | 19.8 | 19.4 | 20.8 | 52.9 | 25.7 | 0

CN(C)C(=O)n1nnnc1Cc1ccc(-c2ccccc2)cc1 + CCOC(=O)N1c2ccc(C(F)(F)F)cc2[C@@H](N(Cc2cc(C(F)(F)F)cc(C(F)(F)F)c2)C(=O)OC)C[C@H]1CC [Torcetrapib]
cell viability [%], HL-60
Conditions | drug1 concentration 5 nM | drug1 concentration 10 nM | drug1 concentration 50 nM | drug1 concentration 100 nM | drug1 concentration 500 nM | drug1 concentration 1000 nM | drug1 concentration 5000 nM
drug2 concentration 5 nM | 89.2 | > 100 | 64.3 | > 100 | 94.3 | > 100 | 8.91
drug2 concentration 10 nM | > 100 | > 100 | > 100 | > 100 | > 100 | 90 | 15.4
drug2 concentration 50 nM | 81.6 | > 100 | 86.8 | 80.8 | 79.3 | 87.4 | 6.94
drug2 concentration 100 nM | 91.3 | > 100 | > 100 | 82.7 | > 100 | 80 | 14.4
drug2 concentration 500 nM | > 100 | > 100 | > 100 | > 100 | > 100 | 85 | 6.21
drug2 concentration 1000 nM | > 100 | > 100 | > 100 | > 100 | 98.3 | > 100 | 13
drug2 concentration 5000 nM | > 100 | > 100 | > 100 | > 100 | > 100 | 78.8 | 0

C=C1NC(=O)c2cc(CN(C)c3ccc(C(=O)N[C@@H](CCC(=O)O)C(=O)O)s3)ccc2N1 [Raltitrexed]
cell viability [%]
Conditions | [1] | [2] | [3] | [4] | [5] | [6] | [7] | [8]
1 nM | 64.8 | 71 | 95.5 | 90.8 | 81.4 | 80.7 | 43.3 | 90.3
10 nM | > 100 | 94.5 | 95 | 85.5 | 90 | > 100 | 90.4 | 98.1
100 nM | 97.1 | > 100 | > 100 | 87.2 | 89.2 | 94.1 | > 100 | > 100
1000 nM | 85.1 | 90.2 | 99.7 | 87.3 | 95.1 | 97.6 | 87 | > 100
10000 nM | > 100 | 92.1 | 98.5 | > 100 | > 100 | > 100 | 92.7 | > 100

CCCCCCCCCCCCC/C=C/[C@@H](O)[C@H](CO)N(C)C [N,N-Dimethylsphingosine]
cell viability [%]
Conditions | [1] | [2] | [3] | [4] | [5] | [6] | [7] | [8]
1 nM | 90.6 | 97.9 | 91.4 | 71.9 | 93.8 | 98.5 | 75.5 | > 100
10 nM | 65.6 | 85 | 96.1 | 86.8 | 95.6 | 80.5 | 57.6 | 99.3
100 nM | 86.3 | 57.8 | 88.2 | 69 | 78.6 | 78.5 | 10.1 | 76.5
1000 nM | 11.6 | 47.9 | 92.4 | 92.9 | 85.5 | 74 | 2.01 | 83.7
10000 nM | < 0 | 2.81 | 3.22 | 0.0301 | 10.4 | 5.51 | 0.265 | 0.544

Nc1ccn([C@@H]2O[C@H](CO)[C@@H](O)C2(F)F)c(=O)n1 [Gemcitabine]
cell viability [%]
Conditions | [1] | [2] | [3] | [4] | [5] | [6] | [7] | [8]
1 nM | 52.6 | 52.8 | 90.2 | 76.5 | 96.3 | 75.4 | 4.78 | 77.8
10 nM | 3.48 | 44.5 | 95.4 | 71.6 | 80.8 | 93.4 | 2.01 | 84
100 nM | 95.9 | > 100 | 98.4 | 91.5 | 82.5 | 82.8 | 88.3 | 98.2
1000 nM | 65 | 67.4 | 82.9 | 85.4 | 78 | 62.2 | 27.6 | 91.2
10000 nM | 16.3 | 25.8 | 48.5 | 33.7 | 41.8 | 32.2 | 2.39 | 81.8

Fc1ccc(CNc2ncnc3ccc(F)cc23)cc1 [Spautin 1]
cell viability [%]
Conditions | [1] | [2] | [3] | [4] | [5] | [6] | [7] | [8]
1 nM | 74.6 | 87.2 | 97.1 | 93.5 | 96.5 | 77.2 | 84.9 | > 100
10 nM | 70.9 | 56.5 | 88.7 | 82.1 | 90.9 | 87.3 | 17 | 86.8
100 nM | > 100 | 90.5 | > 100 | 85.6 | 91.5 | 96.2 | 78.9 | 96.6
1000 nM | 58.8 | 60.7 | 87.3 | 80.7 | 79.4 | 70.4 | 25.9 | 87.9
10000 nM | 30.3 | 31.2 | 77.2 | 51.1 | 25.9 | 50.5 | 2.01 | 42.2

CN(C)CCNC(=O)c1cccn2c(=O)c3cc4ccccc4cc3nc12 [Bmh-21]
cell viability [%]
Conditions | [1] | [2] | [3] | [4] | [5] | [6] | [7] | [8]
1 nM | 59.2 | 87.3 | 96.5 | 81.8 | 91.5 | 81.3 | 35.6 | 96.4
10 nM | 82.6 | 95 | 98.5 | 74.6 | 99.6 | 89.6 | 94.1 | > 100
100 nM | 92.7 | 90.6 | 97.8 | 79.8 | 92.4 | 93.9 | 79.9 | > 100
1000 nM | 14.1 | 42.8 | 91.6 | 88.3 | 0.134 | 3.78 | 1.33 | 67.1
10000 nM | 4.95 | 3.08 | 33.1 | < 0 | 0.56 | 1.54 | 0.265 | 10.2

Nc1nc(O)c2c(CCc3ccc(C(=O)N[C@@H](CCC(=O)O)C(=O)O)cc3)c[nH]c2n1 [Pemetrexed]
cell viability [%]
Conditions | [1] | [2] | [3] | [4] | [5] | [6] | [7] | [8]
1 nM | 98.8 | 86.9 | 81.9 | 91.8 | 96.9 | > 100 | > 100 | 96.3
10 nM | 68.1 | 82.5 | 96.3 | 88.4 | 98.4 | 93.8 | 88.1 | > 100
100 nM | 84.5 | 90.2 | 97.9 | 89.8 | > 100 | 93.1 | 43.2 | 97.8
1000 nM | 74.1 | 94.7 | 94.3 | 78.1 | 63.2 | 67.3 | 83.4 | 98.7
10000 nM | 66.3 | 52.5 | 87.3 | 87.6 | 94.2 | 82.8 | 14.5 | 78.6
